Starred links: 1 amine or outer side, 2 acyl side, 3 side chain; linkers in the order of their positions; H or OH if unused. Non-standard residues stand in square brackets, D forms with d. Residues, ends and D or L forms follow the SMILES beside them. ξ: configuration not given here. *: point of attachment. ξNMeBip(2'-Et,4'-OMe) = CCc1cc(OC)ccc1-c1ccc(CC(NC)C(=O)O)cc1; X7 = CCc1cc(OC)ccc1-c1ccc(CC(CNC(CCCc2ccccc2)C(N)=O)N*)cc1; ξBip(2'-Et-4'-OMe) = CCc1cc(OC)ccc1-c1ccc(CC(N)C(=O)O)cc1; X6 = O=C(C(CCCc1ccc(Cl)cc1Cl)N[*:1])[*:2]; X10 = O=C(C(CCCc1ccc(F)cc1F)N[*:1])[*:2]; X11 = CN(C(CCCc1ccccc1)C(=O)[*:2])[*:1]; ξbishPhe(2-F) = NC(CCCc1ccccc1F)C(=O)O; ξαMePhe(2-F) = CC(N)(Cc1ccccc1F)C(=O)O; NMeD = CN[C@@H](CC(=O)O)C(=O)O; aThr = C[C@H](O)[C@H](N)C(=O)O; Aib = CC(C)(N)C(=O)O; Moc = COC(=O)*
Legend:
Assay type in all cases: cell-based
[1] = test system: RIN5F (Rat Insulinoma) cells; test: In vitro glucose-dependent insulin secretion (RIN5F cell assay screening protocol); settings: 16.7 mM glucose load
Procedure: RIN5F (Rat Insulinoma) cells were cultured in RPMI 1640 medium supplemented with sodium pyruvate (1 mM) HEPES and Glucose (4.5 g/L) in a humidified incubator (5% CO2), at 37° C. After trypsinization, RIN5F cells were seeded at a concentration of 0.2×10^6 cells per well, in 12 well plates.
The buffer was replaced after 40 min. and the cells were incubated (37° C.) with the test peptidomimetics, at different concentration, for 30 min., both in the presence (16.7 mM) and absence (0 mM) of glucose load. The supernatant was collected and the insulin amount was measured by ultra sensitive Rat insulin ELISA kit (Crystal Chem, IL). The protein was estimated in the supernatant using Bicinchoninic Acid kit, according to the manufacturer's protocol (Sigma Aldrich, MO). The total insulin content obtained in Pico-gram (pg) was divided with the total protein (μg) in order to normalize for differences in cell density between wells.

Human GLP-1 receptor = target: T1, Human GLP-1 receptor (Homo sapiens, UniProt P43220); test: In vitro Human GLP-1 R agonist activity (cyclic AMP determination) in CHO/human GLP1R cells
T1 construct: The full-length cDNA was cloned in pcDNA3.1(+); expressed in transfected cells
T1 sequence (P43220 24-463): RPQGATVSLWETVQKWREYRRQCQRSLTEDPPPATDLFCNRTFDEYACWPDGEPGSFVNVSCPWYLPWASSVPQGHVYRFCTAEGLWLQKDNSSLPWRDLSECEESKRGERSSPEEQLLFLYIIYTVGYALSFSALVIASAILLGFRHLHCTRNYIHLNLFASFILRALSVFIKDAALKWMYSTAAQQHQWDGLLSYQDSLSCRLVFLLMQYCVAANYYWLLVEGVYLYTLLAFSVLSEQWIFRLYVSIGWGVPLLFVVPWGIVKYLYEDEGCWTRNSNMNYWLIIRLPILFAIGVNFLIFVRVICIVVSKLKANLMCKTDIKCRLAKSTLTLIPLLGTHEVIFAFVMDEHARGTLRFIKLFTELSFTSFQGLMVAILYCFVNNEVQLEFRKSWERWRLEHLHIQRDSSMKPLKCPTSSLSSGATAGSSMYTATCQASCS
Procedure: The novel peptidomimetics were screened for Human GLP-1 receptor (HGLP-1 R) agonist activity (in vitro), using the cAMP cell-based assay, in stably transfected CHO/human GLP1R cells. […] CHO cells were grown in Ham's F12 medium containing L-Glutamine (2 mM), HEPES (25 mM), NaHCO3 (1.1 g/L) and supplemented with NewBorn Calf Serum (NBCS; 10%), Penicillin (50 U/ml (v/v)) and Streptomycin (50 ug/ml (v/v)). Cells were split every 3 days 1:8.
The cDNA encoding the human GLP-1 receptor was isolated by RT-PCR according to standard protocol. The full-length cDNA was cloned in pcDNA3.1(+). […] Clones expressing the receptor were generated by G418 (800 μg/ml active, Sigma) selection. The stable clones were thereafter maintained at 500 ug/ml (G418). The selected clone was used between passages 9-25 for cAMP assays.
The trypsin was inactivated using Ham's F12 medium containing 10% NBCS and the cells were suspended in 2 ml of complete medium. […] The medium was aspirated off from the 12 well plate and the cells were washed once using Ham's F12 (plain). […] The cells were incubated with the test compounds for 30 min in humidified atmosphere and 37° C. After the incubation, the medium was removed and cells were washed once with plain Ham's F12. Subsequently, the cells were lysed by adding 500 ul of ice cold 0.1 N HCl to each well and shaking for 30 minutes at 200 rpm. The cells were then scrapped, the lysate was collected in micro centrifuge tubes and centrifuged at 12000 rpm for 10 min to remove the debris. 300 ul of supernatant from each micro-centrifuge tube was then removed into a glass tube and dried under N2 for 30 min, for cAMP estimation. The total cAMP was estimated from the sample according to the manufacturer's protocol using Cyclic AMP immunoassay kit (R&D systems, Minneapolis. MN). The remaining supernatant is used to determine the protein concentration using micro BCA (Sigma). Data is calculated as percent of control (Vehicle: water) and expressed as Mean±SD.

human glucagon receptor = target: T2, human glucagon receptor (Homo sapiens, UniProt P47871); test: In vitro human glucagon antagonist activity (inhibition of cAMP production) in CHO/human glucagon R cells; settings: with saturated concentration of glucagon peptide
T2 construct: The full-length cDNA was cloned in pcDNA3.1 (Invitrogen); expressed in transfected cells
T2 sequence (P47871 26-477): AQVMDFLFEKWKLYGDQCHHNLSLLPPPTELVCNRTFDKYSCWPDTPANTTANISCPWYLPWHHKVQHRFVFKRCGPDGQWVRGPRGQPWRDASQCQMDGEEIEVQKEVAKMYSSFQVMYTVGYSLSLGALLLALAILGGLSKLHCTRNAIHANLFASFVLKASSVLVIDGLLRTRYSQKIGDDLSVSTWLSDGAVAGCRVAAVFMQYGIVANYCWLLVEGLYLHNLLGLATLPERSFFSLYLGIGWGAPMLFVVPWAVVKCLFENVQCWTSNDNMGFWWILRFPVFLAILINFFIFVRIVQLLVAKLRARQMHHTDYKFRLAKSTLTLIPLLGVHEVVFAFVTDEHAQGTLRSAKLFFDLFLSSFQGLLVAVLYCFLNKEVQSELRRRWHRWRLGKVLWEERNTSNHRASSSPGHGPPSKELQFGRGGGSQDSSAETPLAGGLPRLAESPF
Procedure: The CHO-K1 cells (CRL 9618) were obtained from American Type Culture Collection (Rockville, Md.). CHO cells were grown in Ham's F12 medium containing L-Glutamine (2 mM), HEPES (25 mM), NaHCO3 (1.1 g/L) and supplemented with newborn Calf Serum (NBCS; 10%), Penicillin (50 U/ml (v/v)) and Streptomycin (50 ug/ml (v/v)). Cells were split every 3 days 1:8.
The full-length cDNA was cloned in pcDNA3.1 (Invitrogen). […] Clones expressing the receptor were generated by G418 (800 μg/ml active, Sigma) selection. The stable clones were thereafter maintained at 500 ug/ml (G418). The selected clone was used between passages 9-25 for cAMP assays.
The cells were trypsinized using 2 ml of TPVG (0.25% trypsin, 0.53 mM EDTA, 1.38-mM glucose). The trypsin was inactivated using Ham's F12 medium containing 10% NBCS and the cells were suspended in 2 ml of complete medium. […] The medium was aspirated off from the 12 well plate and the cells were washed once using Ham's F12 (plain). The cells were incubated at 37° C. with 500 ul of Ham's F12+1% BSA+0.125 mM RO-20 for 30 min. […] After the incubation, the medium was removed and cells were washed once with plain Ham's F12. Subsequently, the cells were lysed by adding 500 ul of ice cold 0.1 N HCl to each well and shaking for 30 minutes at 200 rpm. The cells were then scrapped, the lysate was collected in micro centrifuge tubes and centrifuged at 12000 rpm for 10 min to remove the debris. 300 ul of supernatant from each micro-centrifuge tube was then removed into a glass tube and dried under N2 for 30 min, for cAMP estimation. The total cAMP was estimated from the sample according to the manufacturer's protocol using Cyclic AMP immunoassay kit (R&D systems, Minneapolis. MN). The remaining supernatant is used to determine the protein concentration using micro BCA (Sigma). Data is calculated as percent of control (Vehicle: water) and expressed as Mean+SD.

| SMILES | Human Glucagon receptor antagonistic activity shown as inhibition of cAMP production of Glucagon peptide (human glucagon receptor; 1 nM test compound) [pmol/ml/μg prt] | Human Glucagon receptor antagonistic activity shown as inhibition of cAMP production of Glucagon peptide (human glucagon receptor; 10 nM test compound) [pmol/ml/μg prt] | Human Glucagon receptor antagonistic activity shown as inhibition of cAMP production of Glucagon peptide (human glucagon receptor; 100 nM test compound) [pmol/ml/μg prt] | Human Glucagon receptor antagonistic activity shown as inhibition of cAMP production of Glucagon peptide (human glucagon receptor; 1 μM test compound) [pmol/ml/μg prt] | Human Glucagon receptor antagonistic activity shown as inhibition of cAMP production of Glucagon peptide (human glucagon receptor; 10 μM test compound) [pmol/ml/μg prt] | also measured |
| --- | --- | --- | --- | --- | --- | --- |
| CCc1cc(OC)ccc1-c1ccc(CC(NC(=O)[C@H](CC(=O)O)NC(=O)[C@H](CO)NC(=O)[C@@H](NC(=O)C(C)(Cc2ccccc2F)NC(=O)[C@@H](NC(=O)CNC(=O)[C@H](CCC(N)=O)NC(=O)C(C)(C)NC(=O)[C@@H](N)Cc2c[nH]cn2)[C@@H](C)O)[C@@H](C)O)C(=O)NC(CCCc2ccccc2F)C(N)=O)cc1 (stereo partly drawn) [compound 85] (H-H[Aib]QGT[ξαMePhe(2-F)]TSD[ξBip(2'-Et-4'-OMe)][ξbishPhe(2-F)]-NH2) | – | – | – | – | – | Insulin secretion ([1]; 0.1 nM test compd.): 11.9 ± 0.17 pg/µg/h; Insulin secretion ([1]; 1 nM test compd.): 14.2 ± 0.13 pg/µg/h; Insulin secretion ([1]; 10 nM test compd.): 27.6 ± 0.16 pg/µg/h |
| CCc1cc(OC)ccc1-c1ccc(CC(CNC(CCCc2ccccc2F)C(N)=O)NC[C@H](CC(=O)O)NC(=O)[C@H](CO)NC(=O)[C@@H](NC(=O)C(C)(Cc2ccccc2F)NC(=O)[C@@H](NC(=O)CNC(=O)[C@H](CCC(N)=O)NC(=O)C(C)(C)NC(=O)[C@H](Cc2c[nH]cn2)NC(=O)OC)[C@@H](C)O)[C@@H](C)O)cc1 (single isomer, unassigned) [compound 196] | – | – | – | – | – | Human GLP-1 R activity (cAMP release), % activity with respect to control (Human GLP-1 receptor; 1 nM test compound): 39 ± 0.10%; Human GLP-1 R activity (cAMP release), % activity with respect to control (Human GLP-1 receptor; 10 nM test compound): 81 ± 0.08%; Human GLP-1 R activity (cAMP release), % activity with respect to control (Human GLP-1 receptor; 100 nM test compound): 89 ± 0.09%; Human GLP-1 R activity (cAMP release), % activity with respect to control (Human GLP-1 receptor; 1 μM test compound): 96 ± 0.11%; Human GLP-1 R activity (cAMP release), % activity with respect to control (Human GLP-1 receptor; 10 μM test compound): 99 ± 0.16% |
| CCc1cc(OC)ccc1-c1ccc(CC(NC(=O)[C@H](CC(=O)O)NC(=O)[C@H](CO)NC(=O)[C@@H](NC(=O)C(C)(Cc2ccccc2F)NC(=O)[C@@H](NC(=O)CNC(=O)[C@H](CCC(N)=O)NC(=O)C(C)(C)NC(=O)[C@@H](N)Cc2c[nH]cn2)[C@@H](C)O)[C@@H](C)O)C(=O)NC(CCCc2ccc(F)cc2F)C(N)=O)cc1 (stereo partly drawn) [compound 86] (H-H[Aib]QGT[ξαMePhe(2-F)]TSD[ξBip(2'-Et-4'-OMe)][X10]-NH2) | – | – | – | – | – | Insulin secretion ([1]; 0.1 nM test compd.): 12.3 ± 0.33 pg/µg/h; Insulin secretion ([1]; 1 nM test compd.): 14.8 ± 0.16 pg/µg/h; Insulin secretion ([1]; 10 nM test compd.): 28.1 ± 0.22 pg/µg/h |
| CCc1cc(OC)ccc1-c1ccc(CC(NC(=O)[C@H](CC(=O)O)NC(=O)[C@H](CO)NC(=O)[C@@H](NC(=O)[C@H](Cc2ccccc2)NC(=O)[C@@H](NC(=O)CNC(=O)[C@H](CCC(N)=O)NC(=O)[C@H](CO)NC(=O)[C@@H](N)Cc2c[nH]cn2)[C@@H](C)O)[C@@H](C)O)C(=O)NC(CCCc2ccc(Cl)cc2Cl)C(N)=O)cc1 (stereo partly drawn) [compound 51] (H-HSQGTFTSD[ξBip(2'-Et-4'-OMe)][X6]-NH2) | 5 ± 0.09 | 3 ± 0.11 | 0 | 0 | 0 | – |
| CCc1cc(OC)ccc1-c1ccc(CC(C(=O)N(C)C(CCCc2ccccc2)C(N)=O)N(C)C(=O)[C@H](CC(=O)O)N(C)C(=O)[C@H](CO)NC(=O)[C@@H](NC(=O)C(C)(Cc2ccccc2F)NC(=O)[C@@H](NC(=O)CNC(=O)[C@H](CCC(N)=O)NC(=O)C(C)(C)NC(=O)[C@H](Cc2c[nH]cn2)NC(=O)OC)[C@H](C)O)[C@H](C)O)cc1 (stereo partly drawn) [compound 150] (Moc-H[Aib]QG[aThr][ξαMePhe(2-F)][aThr]S[NMeD][ξNMeBip(2'-Et,4'-OMe)][X11]-NH2) | 10 ± 0.12 | 8 ± 0.02 | 6 ± 0.04 | 4 ± 0.05 | 1 ± 0.02 | – |
| CCc1cc(OC)ccc1-c1ccc(CC(NC(=O)[C@H](CC(=O)O)NC(=O)[C@H](CO)NC(=O)[C@@H](NC(=O)[C@H](Cc2ccccc2)NC(=O)[C@@H](NC(=O)CNC(=O)[C@H](CCC(N)=O)NC(=O)C2(NC(=O)[C@@H](N)Cc3c[nH]cn3)CCCC2)[C@@H](C)O)[C@@H](C)O)C(=O)NC(CCCc2ccc(Cl)cc2C)C(N)=O)cc1 (single isomer, unassigned) [compound 28] | 14 ± 0.02 | 11 ± 0.03 | 7 ± 0.22 | 3 ± 0.12 | 0 | – |
| CCc1cc(OC)ccc1-c1ccc(CC(CNC(CCCc2ccccc2)C(N)=O)NC(=O)[C@H](CC(=O)O)NC(=O)[C@H](CO)NC(=O)[C@@H](NC(=O)C(C)(Cc2ccccc2F)NC(=O)[C@@H](NC(=O)CNC(=O)[C@H](CCC(N)=O)NC(=O)C(C)(C)NC(=O)[C@@H](N)Cc2c[nH]cn2)[C@H](C)O)[C@H](C)O)cc1 (stereo partly drawn) [compound 189] (H-H[Aib]QG[aThr][ξαMePhe(2-F)][aThr]SD-X7) | 3 ± 0.12 | 1 ± 0.12 | 0 | 0 | 0 | – |
| CCc1cc(OC)ccc1-c1ccc(CC(NC(=O)[C@H](CC(=O)O)NC(=O)[C@H](CO)NC(=O)[C@@H](NC(=O)C(C)(Cc2ccccc2F)NC(=O)[C@@H](NC(=O)CNC(=O)[C@H](CC(C(F)(F)F)C(F)(F)F)NC(=O)C(C)(C)NC(=O)[C@@H](N)Cc2c[nH]cn2)[C@H](C)O)[C@H](C)O)C(=O)NC(CCCc2ccccc2)C(N)=O)cc1 (single isomer, unassigned) [compound 228] | – | – | – | – | – | Human GLP-1 R activity (cAMP release), % activity with respect to control (Human GLP-1 receptor; 1 nM test compound): 99 ± 0.11%; Human GLP-1 R activity (cAMP release), % activity with respect to control (Human GLP-1 receptor; 10 nM test compound): 99 ± 0.13%; Human GLP-1 R activity (cAMP release), % activity with respect to control (Human GLP-1 receptor; 100 nM test compound): 99 ± 0.16%; Human GLP-1 R activity (cAMP release), % activity with respect to control (Human GLP-1 receptor; 1 μM test compound): 99 ± 0.06%; Human GLP-1 R activity (cAMP release), % activity with respect to control (Human GLP-1 receptor; 10 μM test compound): 99 ± 0.10% |

From patent publication US8883963B2 (Cadila Healthcare Limited, priority 2007, dated 2014)
